Data on four compounds can be found in US20230398099A1, “METHODS OF TREATING CONDITIONS RELATED TO THE S1P1 RECEPTOR” (Arena Pharmaceuticals, Inc., priority 2020, published 2023).

In general, Emax refers to the size of the effect at its maximum, as opposed to the concentration needed. As a reminder, the EC50 is the concentration at which the effect is half-maximal. High values mean a need for much substance, low ones an effect from little substance.

Read-outs that look alike come from different tables or passages of the source.

In one test the target is hS1PR2 (Homo sapiens, UniProt O95136). Kind of test: b-arrestin recruitment assay. The format is cell-based.
A further test has as its target T1, hS1PR4 (Homo sapiens, UniProt O95977).
T1 sequence (O95977 1-384): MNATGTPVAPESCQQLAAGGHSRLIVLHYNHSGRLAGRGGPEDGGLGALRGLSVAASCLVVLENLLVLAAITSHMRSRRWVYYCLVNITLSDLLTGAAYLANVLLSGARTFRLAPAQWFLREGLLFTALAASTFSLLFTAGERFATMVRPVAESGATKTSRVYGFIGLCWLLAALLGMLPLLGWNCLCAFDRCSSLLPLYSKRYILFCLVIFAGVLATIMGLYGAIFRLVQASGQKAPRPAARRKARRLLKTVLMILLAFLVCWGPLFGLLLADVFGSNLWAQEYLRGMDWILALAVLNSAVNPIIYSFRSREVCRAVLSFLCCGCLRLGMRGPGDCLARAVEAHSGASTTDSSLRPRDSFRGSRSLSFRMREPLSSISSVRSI
Kind of test: b-arrestin recruitment assay. The format is cell-based. The settings on record: for EC50: EC50 [95% confidence interval] (n). In general terms: Recruitment of arrestin is a read-out of receptor activation apart from second messengers.

A further test has as its target S1P2 Receptor (Homo sapiens, UniProt O95136). Kind of test: S1P2 receptor internalization. To be noted: N 5. The format is cell-based.
The next test has as its target hS1PR3 (Homo sapiens, UniProt Q99500). Kind of test: b-arrestin recruitment assay. The format is cell-based.
Another test concerns the target hS1PR5 (Homo sapiens, UniProt Q9H228). Kind of test: b-arrestin recruitment assay. The class given is cell-based. To be noted: for EC50: EC50 [95% confidence interval] (n).
The target of a further test is hS1PR1 (Homo sapiens, UniProt P21453). Kind of test: b-arrestin recruitment assay. The format is cell-based. The settings on record: for EC50: b-arrestin recruitment, hS1PR1, EC50 [95% confidence interval] (n).
For the next test, the target named is hS1P1 (Homo sapiens, UniProt P21453). Kind of test: S1P1 GTPgS binding assay. The settings on record: for EC50: S1P1 GTPgS binding, EC50 [95% confidence interval] (n). The class given is biochemical. For orientation: Binding of GTPγS marks nucleotide exchange on a G protein.
Test [1] relates to OVA-induced acute asthma model in mice. Kind of test: ovalbumin (OVA)-induced acute asthma model. The class given is in vivo, mouse. The settings on record: QD Day 12-15; for immune cells in bronchoalveolar lavage (BAL): FIG. 9. The method, then: The OVA model is a widely used pre-clinical allergic asthma model and recapitulates many of the hallmarks of allergic asthma in humans. These include elevated IgE and TH2 related cytokines, mucus hypersecretion, airway inflammation, goblet cell hyperplasia, epithelial hypertrophy, and airway hyperreactivity to stimuli.
Mice were sensitized with an intraperitoneal (IP) injection of OVA and adjuvant on days 0 and 7. Mice were then challenged with intranasal delivery of OVA (10-200 μg) in saline on days 13-15 with endpoints conducted on day 16. Endpoints in this model generally included total and differential cell counts as well as inflammatory mediator content in the broncho-alveolar lavage fluid, airway hyperreactivity and detailed lung mechanics measured with the flexiVent™ rodent mechanical ventilator as well as histopathology and immunohistochemistry on lung sections.

The test system of test [2] is FITC-induced contact hypersensitivity (CHS)/dermatitis in BALB/c mice. Kind of test: mouse model of FITC-induced contact dermatitis. The format is in vivo. To be noted: for skin thickening (ear thickening): FIG. 8. The text has this:
Fluorescein isothiocyanate isomer I (FITC) was used to induce contact hypersensitivity (CHS)/dermatitis in BALB/c mice by administering two sensitizing applications of the hapten onto the shaved flanks of the animals on Days 0 and 5, followed by three days of FITC challenge on the dorsal surface of both ears on Days 10-12. […] Treatment was initiated on Day −1 to model prophylactic treatment.

Where [3] appears, read: 1 mg/kg daily oral, compared to vehicle, dose-dependent, FIG. 6.
[4] abbreviates: 1 mg/kg daily oral, compared to vehicle, dose-dependent, FIG. 7.

Sequence of hS1P1 (P21453 whole entry): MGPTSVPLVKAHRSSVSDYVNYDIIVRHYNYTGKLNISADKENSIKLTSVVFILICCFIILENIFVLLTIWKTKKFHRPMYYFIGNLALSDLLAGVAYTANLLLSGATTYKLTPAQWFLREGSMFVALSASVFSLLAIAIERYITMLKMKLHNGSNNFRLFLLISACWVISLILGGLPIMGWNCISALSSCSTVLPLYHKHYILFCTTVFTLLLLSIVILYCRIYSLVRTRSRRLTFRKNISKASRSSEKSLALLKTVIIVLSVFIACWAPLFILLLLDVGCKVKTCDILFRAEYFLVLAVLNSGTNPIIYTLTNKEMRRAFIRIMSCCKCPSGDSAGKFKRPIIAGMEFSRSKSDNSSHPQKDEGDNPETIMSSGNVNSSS
Sequence of hS1PR1 (P21453 whole entry): as above
Sequence of S1P2 Receptor (O95136 whole entry): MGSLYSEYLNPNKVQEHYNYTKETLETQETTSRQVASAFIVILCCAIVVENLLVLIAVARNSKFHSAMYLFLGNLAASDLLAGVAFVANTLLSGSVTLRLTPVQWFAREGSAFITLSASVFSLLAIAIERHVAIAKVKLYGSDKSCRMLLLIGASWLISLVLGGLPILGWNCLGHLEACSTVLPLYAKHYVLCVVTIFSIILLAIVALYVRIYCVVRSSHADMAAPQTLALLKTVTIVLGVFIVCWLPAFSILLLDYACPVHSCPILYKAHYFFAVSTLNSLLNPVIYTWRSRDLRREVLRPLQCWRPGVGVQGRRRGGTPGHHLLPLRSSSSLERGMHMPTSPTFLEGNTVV
Sequence of hS1PR5 (Q9H228 whole entry): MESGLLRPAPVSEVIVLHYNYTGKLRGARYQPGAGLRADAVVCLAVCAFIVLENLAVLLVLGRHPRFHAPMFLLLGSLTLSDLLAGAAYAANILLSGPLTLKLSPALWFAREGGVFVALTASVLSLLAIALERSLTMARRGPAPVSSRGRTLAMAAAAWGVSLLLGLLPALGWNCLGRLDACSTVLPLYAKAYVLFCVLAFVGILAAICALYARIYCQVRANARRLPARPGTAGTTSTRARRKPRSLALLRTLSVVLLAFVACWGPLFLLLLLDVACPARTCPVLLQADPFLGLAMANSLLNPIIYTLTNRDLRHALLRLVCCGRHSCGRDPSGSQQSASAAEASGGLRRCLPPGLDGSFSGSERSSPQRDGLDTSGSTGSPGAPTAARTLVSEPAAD
Sequence of hS1PR3 (Q99500 whole entry): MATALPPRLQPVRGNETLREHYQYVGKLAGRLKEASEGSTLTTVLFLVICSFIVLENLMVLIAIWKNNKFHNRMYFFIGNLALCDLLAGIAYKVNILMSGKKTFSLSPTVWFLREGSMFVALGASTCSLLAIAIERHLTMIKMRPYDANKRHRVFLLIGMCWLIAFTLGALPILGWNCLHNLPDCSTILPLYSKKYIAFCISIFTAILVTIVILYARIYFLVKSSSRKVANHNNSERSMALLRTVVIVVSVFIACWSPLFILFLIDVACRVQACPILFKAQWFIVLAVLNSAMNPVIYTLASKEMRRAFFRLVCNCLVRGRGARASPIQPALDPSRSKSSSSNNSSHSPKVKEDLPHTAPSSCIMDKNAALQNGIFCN
Sequence of hS1PR2 (O95136 whole entry): as the sequence (O95136 whole entry) above

For `CCCCCCCCCCCCC/C=C/[C@@H](O)[C@@H](N)COP(=O)(O)O` [Compound S1P, sphingosine-1-phosphate], the Emax came out at 108% at hS1PR2; 117% at hS1PR4 (read-out: Emax); 113% on hS1PR3; 114% on hS1PR5 (read-out: Emax); 113% at hS1PR1; 102% on hS1P1. Moreover, the EC50 was found to be 0.99 nM on hS1PR4 (b-arrestin recruitment, hS1PR4); 13.9 nM at hS1PR3 (b-arrestin recruitment, hS1PR3, EC50 [95% confidence interval] (n)); 18.3 nM on hS1PR1; 77 nM on hS1P1. Further, the “Efficacy, % of S1P” value at S1P2 Receptor is given as 100%.
Consider `CC(C)Cc1ccc(-c2nc(-c3ccc(CN4CC(C(=O)O)C4)c(F)c3)no2)cc1` [Compound 1, 1-{2-fluoro-4-[5-(4-isobutylphenyl)-1,2,4-oxadiazole-3-yl]benzyl}-3-azetidinecarboxylic acid], for which the “immune cells in bronchoalveolar lavage (BAL)” value in [1] (0.1 mg/kg PO) and in test [1] (1 mg/kg PO) was “did not have significant effect” in each case. For the same compound, the “lung function measured by airway resistance or elastance” value in test [1] (PO, Methacholine challenge, FIG. 10) is listed as “no significant effect”. For the same compound, the EC50 on hS1PR4 (b-arrestin recruitment, hS1PR4) was 3.2 nM; at S1P2 Receptor, 2510 nM; at hS1PR5 (b-arrestin recruitment, hS1PR5), 0.71 nM; on hS1PR1, 6.2 nM; on hS1P1 it was 1.8 nM. Moreover, the Emax on hS1PR4 (read-out: Emax) is 104%; at hS1PR5 (read-out: Emax), 120%; at hS1PR1, 128%; at hS1P1, 98%. For the same compound, the “Efficacy, % of S1P” value on S1P2 Receptor was 65%. The entries for the “skin thickening (ear thickening)” value in test [2] (0.1 mg/kg daily oral) and in test [2] (1 mg/kg daily oral) were “had no effect” and “reduced skin thickening”, respectively. Further, the “B cells in the skin” value in test [2] (setting [3]) is on record as “reduced”. For the same compound, in test [2] (setting [3]), the “T cells in the skin” value is reported as “reduced”. In [2] (setting [4]), the WBC count entry was “reduced”. The lymphocyte frequency entry in [2] (setting [4]) is “reduced”.
Consider `CC(C)Oc1ccc(-c2nc(-c3cccc4c3CC[C@@H]4NCCO)no2)cc1C#N` [Ozanimod], for which the EC50 at hS1PR4 (b-arrestin recruitment, hS1PR4) was 117 nM; at hS1PR5 (b-arrestin recruitment, hS1PR5) it was 7.3 nM. In addition, the Emax at hS1PR4 (read-out: Emax) amounted to 93%; at hS1PR5 (read-out: Emax), 117%; at hS1PR1 it was 130%; at hS1P1, 104%.
Turning to `CCCCCCCCc1ccc(CC[C@](N)(CO)COP(=O)(O)O)cc1` [Fingolimod(P)], the Emax on hS1PR4 (b-arrestin recruitment, hS1PR4, % relative to S1P) is recorded as 94%; at hS1PR5 (b-arrestin recruitment, hS1PR5, % relative to S1P), 62%. In addition, the EC50 at hS1PR4 (b-arrestin recruitment, hS1PR4) amounted to 0.76 nM. Moreover, on S1P2 Receptor, the “Efficacy, % of S1P” value is on record as 80%.
